Experimental data from patent US20150206621A1, “Electrical Insulator Comprising An Organofluorine Compound And Method For Producing It” (priority 2012, published 2015).

Test: toxicity / lethal concentration LC50
Type: in vivo

| Compound | risk for human toxicity (in words) (concluded from available results of mammalian HFC (hydrofluorocarbon) tests) | toxicity (in words) (in vivo) | LC50 (in vivo) |
| --- | --- | --- | --- |
| FC(F)(F)COC(F)(F)F [2,2,2-trifluoroethyl-trifluoromethyl ether] | low risk for human toxicity |  |  |
| O=C(C(F)(F)F)C(F)(C(F)(F)F)C(F)(F)F [C5-ketone, 1,1,1,3,4,4,4-heptafluoro-3-(trifluoromethyl)butan-2-one] |  | practically non-toxic |  |
| O=C(C(F)(F)C(F)(F)F)C(F)(C(F)(F)F)C(F)(F)F [C6-ketone, 1,1,1,2,4,4,5,5,5-Nonafluoro-2-(trifluoromethyl)pentan-3-one] |  | non-toxic | about 100'000 ppm |
